Assay type in all cases: in vivo
Assay [1] deals with WOK.W rat. Kind of assay: Feeding trial in male WOK.W rats: serum triglycerides. The note with it: 16 weeks old, after 12 weeks supplementation via drinking water, mean ± SEM, pathological threshold >2.3 mmol/l, a: P < 0.01. The text has this:
(§1) Both pharmacological and nutrition-induced intervention trials on patients with an increased triglyceride level are above all time consuming, in order to detect changes of the metabolism, and require a high degree of discipline and motivation of the test persons or patients taking part in the studies. In part, these disadvantages can be lessened or eliminated by animal experiments, under the precondition that equivalent animal models are available. […] The specific properties of WOK.W rats are described, e.g., in: • P. Kovacs et al., Ann. N.Y. Acad. Sci., 1997, 827, 94-99; • P. Kovacs et al., Biochem. Biophsy. Res. Commun., 2000, 660-665; • J. van den Brandt et al., Int. J. Obesity, 2000, 24, 1618-1622; • J. van den Brandt et al., Metabolism 49, 2000, 1140-1144. […]
(§2) Body weight, body length (for the calculation of the mody mass index, BMI), plasma glucose, and serum triglycerides were recorded every 2 weeks. […]
(§3) Plasma glucose was measured enzymatically using a glucose analyzer. Lipid metabolism parameters were determined enzymatically with an automated analyzer for clinical chemistry, with kits (Boehringer Mannheim: triglycerides with TG GPO-PAP), according to the supplied instruction manuals. […]
(§4) The results are represented as mean values ±SEM and the statistical significance was calculated using Student's t-test.

Assay [2] concerns WOK.W rat. Kind of assay: Feeding trial in male WOK.W rats: plasma glucose. To be noted: 16 weeks old, after 12 weeks supplementation via drinking water, mean ± SEM, pathological threshold >8.4 mmol/l.
Text: as §1, §2, §3, §4

Assay [3] concerns WOK.W rat. Description: Feeding trial in male WOK.W rats: body mass, BMI, pararenal adipose tissue. To be noted: 16 weeks old, after 12 weeks supplementation via drinking water, mean ± SEM.
Text: Both pharmacological and nutrition-induced intervention trials on patients with an increased triglyceride level are above all time consuming, in order to detect changes of the metabolism, and require a high degree of discipline and motivation of the test persons or patients taking part in the studies. In part, these disadvantages can be lessened or eliminated by animal experiments, under the precondition that equivalent animal models are available. […] The specific properties of WOK.W rats are described, e.g., in: • P. Kovacs et al., Ann. N.Y. Acad. Sci., 1997, 827, 94-99; • P. Kovacs et al., Biochem. Biophsy. Res. Commun., 2000, 660-665; • J. van den Brandt et al., Int. J. Obesity, 2000, 24, 1618-1622; • J. van den Brandt et al., Metabolism 49, 2000, 1140-1144.
31 male WOK.W rats (from 8 litters) were divided, at an age of 4 weeks, into 4 groups, such that one sibling was represented in each group. Group 1 (n=8 animals) was fed and watered ad libitum and served as an untreated control group. Group 2 (n=7 animals) received drinking water to which had been added whey permeate (25 g sweet whey permeate/1000 ml drinking water), a daily water requirement of 20 ml on average being assumed as the basis of the calculation. Group 3 (n=8 animals) received drinking water to which had been added calcium L-lactate (5,6 g calcium L-lactate/1000 ml drinking water), and group 4 (n=8 animals) received whey permeate and calcium L-lactate in identical concentrations. The treatment trial began at an age of 4 weeks, i.e. before the development of the most important symptoms of the metabolic syndrome, and continued for 12 weeks, until an age of 16 weeks.
as §2, §4

For the compound `C[C@H](O)C(=O)[O-].C[C@H](O)C(=O)[O-].[Ca+2]` [Calcium lactate, calcium L-lactate], the Triglyceride in the assay on WOK.W rat [1] was determined as 3.88 ± 0.22 mmol/L. The compound also yielded a Blood sugar with WOK.W rat [2] of 6.10 ± 0.21 mmol/L. For the same compound, in the assay on WOK.W rat [3], the BMI was determined as 0.77 ± 0.01 g/cm^2 and the Body mass was 394.3 ± 10.6 G. The Adipose tissue in the assay on WOK.W rat [3] (pararenal adipose tissue) came to 10.01 ± 0.71 G.

(Values after patent US20060115538A1, “Calcium lactate and whey permeate for lowering the triglyceride level” (priority 2002, published 2006).)
